In assay [1] the test system is Abeta 1-42. In words: Cellular αLisa assay in SKNBE2 cells, Abeta 1-42. The settings on record: incubated for 18 hours; for IC50: Homo sapiens, SKNBE2, 18 h, read-out: Cellular αLisa assay in SKNBE2 cells Abeta 42 pIC50 (converted). Format: cell-based, human. The essentials:
(§1)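 Secreted Abeta levels were measured by sandwich αLisa, pairing biotin-AbN/25 donor beads with Ab4G8 acceptor beads for total Abeta or cAb42/26 for Abeta 1-42, read at 615 nm after 650 nm excitation following 1 hour. Cells were SKNBE2 expressing wild-type hAPP695, exposed to compound for 18 hours.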

Assay [2] has as its target recombinant BACE1 protein (Homo sapiens, UniProt P56817). In words: Biochemical FRET based assay. The following applies: recombinant BACE1 1 μg/ml, 120 minutes at room temperature, pH 5.0; for IC50: read-out: Biochemical FRET based assay pIC50 (converted). The essentials: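 Proteolysis was read as the rise in donor fluorescence (320 nm excitation, 405 nm emission) from T0 to T120, expressed in RFU. The reaction ran 120 minutes at room temperature at pH 5.0 in citrate buffer with 4% DMSO, using […] quenched Swedish APP peptide and 1 μg/ml BACE1.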

Assay [3] concerns Abeta total. The assay is described as follows: Cellular αLisa assay in SKNBE2 cells, Abeta total. It is filed as cell-based, human. The following applies: incubated for 18 hours; for IC50: Homo sapiens, SKNBE2, 18 h, read-out: Cellular αLisa assay in SKNBE2 cells Abetatotal pIC50 (converted). The essentials:
as §1

A value given as a limit tells only on which side of the number the result lay.

Sequence of recombinant BACE1 protein (P56817 46-501): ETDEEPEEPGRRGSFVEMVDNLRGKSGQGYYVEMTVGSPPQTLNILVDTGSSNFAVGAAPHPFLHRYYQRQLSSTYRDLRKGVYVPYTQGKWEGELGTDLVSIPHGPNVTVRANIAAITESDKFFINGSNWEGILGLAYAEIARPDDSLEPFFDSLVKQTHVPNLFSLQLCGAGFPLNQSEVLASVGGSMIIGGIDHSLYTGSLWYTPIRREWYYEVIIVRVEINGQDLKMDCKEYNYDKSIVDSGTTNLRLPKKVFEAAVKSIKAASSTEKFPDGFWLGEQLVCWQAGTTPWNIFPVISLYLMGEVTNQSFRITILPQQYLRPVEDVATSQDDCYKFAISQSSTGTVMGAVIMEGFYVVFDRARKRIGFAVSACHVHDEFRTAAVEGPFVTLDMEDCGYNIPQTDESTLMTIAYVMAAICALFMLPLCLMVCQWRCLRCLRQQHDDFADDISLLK

Take `C[C@]1(c2cc(-c3cncc(F)c3)c(F)cc2F)N=C(N)CO[C@@H]1C(F)(F)F` [Compound 316]: the figures for the IC50 in assay [1], in assay [2] and in assay [3] were 724 nM, 1150 nM and 631 nM, respectively.

For the compound `CC1(c2cc(-c3cccc(C(F)(F)F)c3)c(F)cc2F)COCC(N)=N1` (stereo not drawn) [Compound 31], the “Cellular αLisa assay in SKNBE2 cells Abeta 42 pIC50” value in assay [1] was 5.76. Also, the “Biochemical FRET based assay pIC50” value in assay [2] is 4.76. Besides, the “Cellular αLisa assay in SKNBE2 cells Abetatotal pIC50” value in assay [3] was determined as 5.86.

Consider `CC1(c2cccc(NC(=O)c3ccc(Cl)cn3)c2)COC(F)(C(F)(F)F)C(N)=N1` (single isomer, unassigned) [Compound 71], for which the “Cellular αLisa assay in SKNBE2 cells Abeta 42 pIC50” value in assay [1] was under 5. Also, the “Biochemical FRET based assay pIC50” value in assay [2] was 6.25. Besides, the “Cellular αLisa assay in SKNBE2 cells Abetatotal pIC50” value in assay [3] is under 5.

For `N#Cc1ccc(C(=O)Nc2cccc([C@@]3(C4CC4)N=C(N)CO[C@H]3C(F)(F)F)c2)nc1` [Compound 225, (2R,3R)—N-{3-[5-amino-3-cyclopropyl-2-(trifluoromethyl)-3,6-dihydro-2H-1,4-oxazin-3-yl]phenyl}-5-cyanopyridine-2-carboxamide], the IC50 in assay [1] is 6.31 nM; in assay [2], 35.5 nM; in assay [3] it was 6.61 nM.

Consider `C[C@]1(c2cccc(-c3cncnc3)c2)CO[C@@](C)(C(F)(F)F)C(N)=N1` (racemic) [Compound 162, cis-rac-2,5-dimethyl-5-(3-pyrimidin-5-ylphenyl)-2-(trifluoromethyl)-5,6-dihydro-2H-1,4-oxazin-3-amine], for which the “Cellular αLisa assay in SKNBE2 cells Abeta 42 pIC50” value in assay [1] is reported as 6.1. The “Biochemical FRET based assay pIC50” value in assay [2] was 5.21. Further, the “Cellular αLisa assay in SKNBE2 cells Abetatotal pIC50” value in assay [3] was 6.14.

In the case of `C[C@]1(c2cccc(NC(=O)c3ccc(C#N)cn3)c2)N=C(N)CO[C@]1(F)C(F)(F)F` [Compound 240], the IC50 in assay [1] is 10.5 nM; in assay [2], 25.7 nM; in assay [3], 10.2 nM.

`COc1cnc(C(=O)Nc2cccc(C3(C)N=C(N)COC3(F)C(F)(F)F)c2)cn1` (single isomer, unassigned) [Compound 178]: the “Cellular αLisa assay in SKNBE2 cells Abeta 42 pIC50” value in assay [1] was 5.33. Moreover, the IC50 in assay [2] was 20000 nM. In addition, the “Cellular αLisa assay in SKNBE2 cells Abetatotal pIC50” value in assay [3] is 5.35.

`Cc1cccnc1C(=O)Nc1ccc(F)c(C2(C)COCC(N)=N2)c1` (stereo not drawn) [Compound 30]: in assay [1], the “Cellular αLisa assay in SKNBE2 cells Abeta 42 pIC50” value is 7.57. In addition, the “Biochemical FRET based assay pIC50” value in assay [2] stood at 6.05. The “Cellular αLisa assay in SKNBE2 cells Abetatotal pIC50” value in assay [3] is 7.66.

With `NC1=N[C@@](c2cccc(NC(=O)c3cnc(OCC(F)(F)F)cn3)c2)(C2CC2)[C@@H](F)OC1` [Compound 275], the IC50 is 58.9 nM in assay [1], 61.7 nM in assay [2] and 56.2 nM in assay [3].

Consider `CCC1(c2cc(NC(=O)c3cnc(OC)cn3)ccc2F)N=C(N)COC1C(F)(F)F` (stereo not drawn) [Compound 285], for which the IC50 in assay [1] was 14.8 nM; in assay [2] it was 100 nM; in assay [3], 15.8 nM.

With `C[C@H]1OC[C@](C)(c2cccc(NC(=O)c3ccc(Cl)cn3)c2)N=C1N` (racemic) [Compound 20, trans-rac-N-[3-(5-Amino-3,6-dimethyl-3,6-dihydro-2H-1,4-oxazin-3-yl)phenyl]-5-chloropyridine-2-carboxamide], in assay [1], the “Cellular αLisa assay in SKNBE2 cells Abeta 42 pIC50” value was 7.81. Besides, the “Biochemical FRET based assay pIC50” value in assay [2] stood at 6.78. For the same compound, the “Cellular αLisa assay in SKNBE2 cells Abetatotal pIC50” value in assay [3] was 7.86.

Turning to `COc1cncc(-c2cccc(C3(C)N=C(N)COC3C(F)(F)F)c2)c1` (stereo not drawn) [Compound 108], the IC50 was 120 nM in assay [1], 1290 nM in assay [2] and 120 nM in assay [3].

`COc1ccc(-c2cc(C3(C)COCC(N)=N3)c(F)cc2F)cc1` (stereo not drawn) [Compound 33]: in assay [1], the “Cellular αLisa assay in SKNBE2 cells Abeta 42 pIC50” value is given as 5.72. Further, the “Biochemical FRET based assay pIC50” value in assay [2] is on record as 4.91. For the same compound, the “Cellular αLisa assay in SKNBE2 cells Abetatotal pIC50” value in assay [3] amounted to 5.75.

As to `C[C@@]1(c2cc(NC(=O)c3ccc(C(F)(F)F)cn3)ccc2F)COCC(N)=N1` [Compound 38], the “Cellular αLisa assay in SKNBE2 cells Abeta 42 pIC50” value in assay [1] is recorded as 8.39. In addition, the “Biochemical FRET based assay pIC50” value in assay [2] amounted to 6.91. Further, the “Cellular αLisa assay in SKNBE2 cells Abetatotal pIC50” value in assay [3] is 8.35.

Turning to `NC1=N[C@@](c2cc(-c3cncc(Cl)c3)ccc2F)(C2CC2)[C@@H](F)OC1` [Compound 294], the IC50 in assay [1] is 6610 nM; in assay [2], 2290 nM; in assay [3] it was 4900 nM.

As to `COc1cccc(-c2cc([C@]3(C)COCC(N)=N3)c(F)cc2F)n1.Cl` [Compound 145], the “Cellular αLisa assay in SKNBE2 cells Abeta 42 pIC50” value in assay [1] is 5.45. Also, the “Biochemical FRET based assay pIC50” value in assay [2] stood at 4.67. Besides, the “Cellular αLisa assay in SKNBE2 cells Abetatotal pIC50” value in assay [3] turned out to be 5.55.

Turning to `COc1cncc(-c2cccc(C3(C)N=C(N)COC3(F)C(F)(F)F)c2)c1` (single isomer, unassigned) [Compound 119], the “Cellular αLisa assay in SKNBE2 cells Abeta 42 pIC50” value in assay [1] was 5.62. Further, the IC50 in assay [2] is 11200 nM. For the same compound, in assay [3], the “Cellular αLisa assay in SKNBE2 cells Abetatotal pIC50” value was 5.67.

`C[C@]1(c2cccc(NC(=O)c3ncc(C#N)cc3Cl)c2)N=C(N)CO[C@]1(F)C(F)(F)F` [Compound 245]: the IC50 was 6.61 nM in assay [1], 21.9 nM in assay [2] and 5.89 nM in assay [3].

Consider `CC1(c2cc(NC(=O)c3ccc(Cl)cc3F)ccc2F)COCC(N)=N1.Cl` (stereo not drawn) [Compound 27], for which the “Cellular αLisa assay in SKNBE2 cells Abeta 42 pIC50” value in assay [1] came to 7.06. The “Biochemical FRET based assay pIC50” value in assay [2] came to 6.35. Further, in assay [3], the “Cellular αLisa assay in SKNBE2 cells Abetatotal pIC50” value was 7.04.

As to `Cc1cc(Cl)cnc1C(=O)Nc1cccc([C@@]2(C3CC3)N=C(N)CO[C@H]2F)c1` [Compound 298], the IC50 in assay [1] is 61.7 nM; in assay [2] it was 123 nM; in assay [3], 58.9 nM.

As for `C[C@]1(c2cccc(NC(=O)c3ncc(Cl)cc3Cl)c2)N=C(N)CO[C@@]1(F)C(F)(F)F` [Compound 243], the IC50 in assay [1] was 240 nM; in assay [2], 263 nM; in assay [3], 263 nM.

On to `COc1cncc(-c2cccc([C@]3(C)CO[C@@H](C)C(N)=N3)c2)c1` (racemic) [Compound 18, trans-rac-5-[3-(5-methoxypyridin-3-yl)phenyl]-2,5-dimethyl-5,6-dihydro-2H-1,4-oxazin-3-amine], for which the “Cellular αLisa assay in SKNBE2 cells Abeta 42 pIC50” value in assay [1] is 6.57. For the same compound, in assay [2], the “Biochemical FRET based assay pIC50” value is listed as 5.54. Moreover, the “Cellular αLisa assay in SKNBE2 cells Abetatotal pIC50” value in assay [3] was 6.61.

`NC1=N[C@@](c2cc(-c3cncnc3)ccc2F)(C2CC2)[C@](F)(C(F)(F)F)OC1` [Compound 312]: the IC50 in assay [1] is 3240 nM; in assay [2] it was 661 nM; in assay [3], 2820 nM.

As for `C[C@]1(c2cc(NC(=O)c3cnc(OCC(F)(F)F)cn3)ccc2F)N=C(N)CO[C@]1(F)C(F)(F)F` [Compound 318], the figures for the IC50 in assay [1], in assay [2] and in assay [3] were 851 nM, 355 nM and 724 nM, respectively.

Take `COc1cccc(-c2cc([C@]3(C)COCC(N)=N3)c(F)cc2F)c1` [Compound 47]: in assay [1], the “Cellular αLisa assay in SKNBE2 cells Abeta 42 pIC50” value is recorded as 6.79. The “Biochemical FRET based assay pIC50” value in assay [2] is reported as 5.95. Also, in assay [3], the “Cellular αLisa assay in SKNBE2 cells Abetatotal pIC50” value is on record as 6.83.

For `COc1cncc(-c2cccc(C3(C)N=C(N)COC3F)c2)c1` (single isomer, unassigned) [Compound 88], in assay [1], the “Cellular αLisa assay in SKNBE2 cells Abeta 42 pIC50” value was 5.66. Also, the IC50 in assay [2] is over 30200 nM. Further, the “Cellular αLisa assay in SKNBE2 cells Abetatotal pIC50” value in assay [3] amounted to 5.65.

With `Cc1cnc(C(=O)Nc2cccc(C3(C)COCC(N)=N3)c2)cn1` (racemic) [Compound 7], the “Cellular αLisa assay in SKNBE2 cells Abeta 42 pIC50” value in assay [1] came to 6.49. Moreover, the “Biochemical FRET based assay pIC50” value in assay [2] is 5.39. Besides, the “Cellular αLisa assay in SKNBE2 cells Abetatotal pIC50” value in assay [3] is 6.53.

As to `Cc1cc(Cl)cnc1C(=O)Nc1cccc([C@@]2(C3CC3)N=C(N)CO[C@@H]2F)c1` [Compound 297], the IC50 is 19.1 nM in assay [1], 38.9 nM in assay [2] and 17.4 nM in assay [3].

Turning to `C[C@]1(c2cc(NC(=O)c3ncc(C#N)cc3Cl)ccc2F)N=C(N)CO[C@H]1C(F)(F)F` [Compound 308], the IC50 is 6.31 nM in assay [1], 49 nM in assay [2] and 6.17 nM in assay [3].

Take `COc1cncc(-c2cccc(C3(C)N=C(N)COC3C(F)(F)F)c2)c1` (single isomer, unassigned) [Compound 104]: the “Cellular αLisa assay in SKNBE2 cells Abeta 42 pIC50” value in assay [1] came to 5.8. Moreover, in assay [2], the IC50 was 9330 nM. Also, the “Cellular αLisa assay in SKNBE2 cells Abetatotal pIC50” value in assay [3] is recorded as 5.82.

For the compound `COc1cncc(-c2cccc([C@@]3(C)CO[C@@H](C)C(N)=N3)c2)c1` (racemic) [Compound 19, cis-rac-5-[3-(5-methoxypyridin-3-yl)phenyl]-2,5-dimethyl-5,6-dihydro-2H-1,4-oxazin-3-amine], the “Cellular αLisa assay in SKNBE2 cells Abeta 42 pIC50” value in assay [1] was 6.29. In assay [2], the “Biochemical FRET based assay pIC50” value was determined as 5.38. Besides, in assay [3], the “Cellular αLisa assay in SKNBE2 cells Abetatotal pIC50” value is reported as 6.352.

`Cc1cc(Cl)cnc1C(=O)Nc1ccc(F)c([C@@]2(C3CC3)N=C(N)CO[C@@H]2F)c1` [Compound 315]: the values for the IC50 in assay [1], in assay [2] and in assay [3] were 170 nM, 81.3 nM and 145 nM, respectively.
